Source: patent US8268635B2, “Methods of identifying agents that selectively activate p38 and/or NKkB signaling” (priority 2006, dated 2012)
Entries after “also recorded” stand apart in the source; their conditions may differ. Where no end group is shown, it is not given here.

How the values were obtained:
p38 [1] = assay: p38 kinase activity in human neutrophils; assay type: cell-based; settings: 5 min; TNF 100 or 1000 U/ml, TNF70-80 10-50 μM
Description: The cells were lysed and the lysate assessed by western blot analysis for the level of dual-phosphorylated ERK1/ERK2 (top panel) and ERK2 protein (bottom panel). […] The level of myelin basic protein phosphorylation was quantitated by an Instant Imager.
Neutrophils were prepared from peripheral blood of healthy donors by a rapid single-step technique (Kumaratilake, L. M., Rathjen, D. A., Mack, P., Widmer, F., Prasertsiriroj, V., and Ferrante, A. (1995) J. Clin. Invest. 95: 2315-2323) using Hypaque-Ficoll and according to the institution's guidelines on human ethics. […] These were either used as cells in suspension or as adhered neutrophils by adding the cells to plasma coated plates as previously described (Powell, W., Gravel, S., Halwani, F., Hii, C. S., Huang, Z. H., Tan, A. M., and Ferrante, A. (1997) J. Immunol. 159: 2952-2959).
(§1) KHS (hereon referred to as “GCKR”) activity was assayed as described previously using myelin basic protein as a substrate (Shi, C. S., Leonardi, A., Kyriakis, J., Siebenlist, U., and Kerhl, J. H. (1999) J. Immunol. 163: 3279-3285). ASK-1 activation was determined in immunoprecipitates of ASK-1 by autophosphorylation (Kyriakis, J. M., and Auruch, J. (2001) Physiol. Rev. 81: 807-869). p38 and ERK activities were determined as described using myelin basic protein as a substrate (Hii, C. S., Huang, Z. H., Bilney, A., Costabile, M., Murray, A. W., Rathjen, D. A., Der, C. J., and Ferrante, A. (1998) J. Biol. Chem. 273: 19277-19282). […] A solid phase assay using glutathione-S-transferase (GST)-conjugated-jun (1-79) was employed to assay JNK activity (Hii, C. S., Huang, Z. H., Bilney, A., Costabile, M., Murray, A. W., Rathjen, D. A., Der, C. J., and Ferrante, A. (1998) J. Biol. Chem. 273: 19277-19282). Phosphorylated ASK-1, myelin basic protein and GST-jun (1-79) were fractionated on 8, 16 and 12% SDS polyacrylamide gels, respectively, and the bands were detected and radioactivity determined using an Instant Imager (Packard Instruments, Canberra, Australia).
(§2) The level of myelin basic protein phosphorylation was quantitated by an Instant Imager.

p38 [2] = assay: p38 activation in 70Z/3 cells transfected with hTNFR1 constructs; assay type: cell-based, mouse
Description: The cells were then lysed, protein contents quantified and subjected to p38 kinase assay by Western blot. The results are presented as the mean+−sem of 3 experiments.
The cells were maintained in RPMI-1640 medium with 4.5 g/L glucose, 2 mM L-glutamine, […] 2-mercaptoethanol and 10% FCS in an atmosphere of 95% air and 5% CO2. Cells were plated onto 10 cm plates at 4×10^7 cells in 15 ml culture medium. Before performing transient transfection, plasmid DNA (hTNFR1), kindly provided by Dr M. Kronke, Institute of Medical Microbiology and Hygiene, Medical Center University of Cologne, Koln, Germany (Adam, D., Wiegmann, K., Adam-Klages, S., Ruff A., and Kronke, M. (1996) J. Biol. Chem. 271: 14617-22), (20 μg in 1 ml of RPMI1640) was mixed with LipofectAMINE 2000 (Invitrogen) (60 μl in 1 ml of RPMI) and the mixture were left at room temperature for 20 min. The mixture was directly added to the cells and incubated for 24 h. The cells were washed twice with HBSS before use.

p38 [3] = assay: p38 activity in HUVEC (immunoprecipitation, myelin basic protein substrate); assay type: cell-based, human; settings: 5 min; TNF 1,000 U/ml, peptides 10 μM
Description: as §2, §1

PSTHVLITHTI-OH [TNF70-80]
activity of p38 in neutrophils in suspension (p38 [1]): enhanced the activity of p38 | p38 activity in 70Z cells transfected with an empty vector (p38 [2]): did not stimulate the activity of p38 | p38 activity in 70Z cells, TNF receptor with C1-C3 deleted (p38 [2]): still able to stimulate p38 activity | p38 activity in 70Z cells, TNF receptor with C1-C4 deleted (p38 [2]): retained its ability to stimulate p38 activity | p38 activity in 70Z cells, TNF receptor with C1 domain deleted (p38 [2]): able to stimulate the activity of p38 | p38 activation in 70Z/3 cells transfected with wild type hTNFR1 (p38 [2]; 5 min, TNF 1000 U/ml, peptides 10 μM): caused the activation of p38; also recorded: stimulated the activity of p38 in cells transfected with wild type receptors | p38 activation in non-transfected 70Z/3 cells (p38 [2]; cells lacking TNFR, 5 min, TNF 1000 U/ml, peptides 10 μM): neither TNF nor TNF70-80 activated p38 | activity of p38 in HUVEC (p38 [3]): stimulated the activity of p38
